Test systems include 786-0 renal; MOLT-4 leukemia; NCI-H226 lung; OVCAR-4 ovarian; OVCAR-5 ovarian; RPMI-8226 leukemia; SF-268 CNS; SF-295 CNS; SK-MEL-5 melanoma; T-47D breast.
What all share (assay): NCI anticancer screen, dose series, 48 h

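Step 1: Grow cells in 96-well plates. Step 2: Expose to compound for 48 hours at 5 concentrations. Step 3: Interpolate endpoints linearly; if unreached, use highest concentration. GI50 = concentration required for 50% inhibition of growth. TGI: total growth inhibition.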 Some results are limits rather than exact numbers.

For `Nc1nc(-c2ccccc2)cc(-c2ccc(Cl)cc2)c1-c1nc2ccccc2o1`, the GI50 with 786-0 renal was 10.6 µM; with MOLT-4 leukemia it was 5 µM; in the assay with NCI-H226 lung, 14.5 µM; with OVCAR-4 ovarian, 13.5 µM; with OVCAR-5 ovarian, 21.8 µM; in the assay on RPMI-8226 leukemia, 4.82 µM. The GI50 was 10.9 µM in the assay on SF-268 CNS, 20.5 µM in the assay with SF-295 CNS, 12.8 µM with SK-MEL-5 melanoma and 4.21 µM in the assay on T-47D breast. Moreover, the TGI worked out at 22.3 µM in the assay with 786-0 renal; 20.3 µM in the assay on MOLT-4 leukemia; 29.2 µM with NCI-H226 lung; 28 µM in the assay on OVCAR-4 ovarian; 42.1 µM with OVCAR-5 ovarian; 19.8 µM with RPMI-8226 leukemia. Moreover, the TGI with SF-268 CNS worked out at 27.7 µM; with SF-295 CNS, 37.7 µM; in the assay on SK-MEL-5 melanoma it was 25.4 µM; in the assay with T-47D breast, 27.3 µM.

Turning to `CSC1(CC(=O)N2CCCCC2)C(=O)Nc2ccccc21` (configuration not stated), the TGI in the assay on 786-0 renal, with MOLT-4 leukemia, in the assay with NCI-H226 lung, in the assay on OVCAR-4 ovarian, in the assay on OVCAR-5 ovarian and in the assay with RPMI-8226 leukemia was more than 100 µM in each case. Moreover, the TGI with SF-268 CNS, in the assay on SF-295 CNS, in the assay on SK-MEL-5 melanoma and in the assay on T-47D breast was more than 100 µM in each case.

As for `O=c1ccnc(SCc2ccc(Cl)cc2)[nH]1`, the TGI in the assay with 786-0 renal, in the assay on MOLT-4 leukemia, in the assay with OVCAR-4 ovarian, with OVCAR-5 ovarian, in the assay with RPMI-8226 leukemia and with SF-268 CNS was more than 100 µM in each case. The TGI with SF-295 CNS, with SK-MEL-5 melanoma and in the assay with T-47D breast was more than 100 µM in each case.

As to `Oc1c(I)cc(I)cc1CN(Cc1ccccn1)Cc1ccccn1`, the GI50 with 786-0 renal is 0.952 µM; in the assay on MOLT-4 leukemia, 0.89 µM; with NCI-H226 lung, 1.16 µM; in the assay with OVCAR-4 ovarian, 0.658 µM; in the assay with OVCAR-5 ovarian, 2.14 µM; in the assay with RPMI-8226 leukemia, 1.17 µM. In addition, the GI50 is 0.575 µM with SF-268 CNS, 0.658 µM in the assay with SF-295 CNS, 0.542 µM in the assay on SK-MEL-5 melanoma and 1.34 µM in the assay on T-47D breast. For the same molecule, the TGI in the assay on 786-0 renal is 12 µM; with MOLT-4 leukemia it was 10.7 µM; in the assay with NCI-H226 lung, 7.48 µM; with OVCAR-4 ovarian, more than 44.1 µM; with OVCAR-5 ovarian, 53.5 µM; in the assay with RPMI-8226 leukemia, 14.1 µM. Also, the TGI with SF-268 CNS is 16.1 µM; in the assay with SF-295 CNS, more than 27.1 µM; in the assay with SK-MEL-5 melanoma, 2.59 µM; in the assay on T-47D breast, 10.6 µM.

For the molecule `COc1cnc2c(c1)C(=O)c1c-2n(CCCNC(C)C)c(=O)c2cc([N+](=O)[O-])ccc12`, the GI50 in the assay on 786-0 renal was 0.0351 µM; in the assay on MOLT-4 leukemia it was 0.0223 µM; with NCI-H226 lung, 0.0651 µM; in the assay on OVCAR-4 ovarian, 0.179 µM; in the assay with OVCAR-5 ovarian, 0.155 µM; with RPMI-8226 leukemia it was 0.0487 µM. In addition, the GI50 with SF-268 CNS is 0.0488 µM; in the assay with SF-295 CNS it was 0.0309 µM; with SK-MEL-5 melanoma, 0.0461 µM; in the assay with T-47D breast, 0.0393 µM. Moreover, the TGI was determined as 0.156 µM in the assay on 786-0 renal; 0.0941 µM in the assay with MOLT-4 leukemia; 0.798 µM in the assay on NCI-H226 lung; 0.807 µM with OVCAR-4 ovarian; 0.624 µM with OVCAR-5 ovarian; 0.738 µM in the assay on RPMI-8226 leukemia. Further, the TGI with SF-268 CNS came to 1.42 µM; in the assay on SF-295 CNS, 0.221 µM; in the assay with SK-MEL-5 melanoma, 0.177 µM; in the assay on T-47D breast, 1.14 µM.

Take `C=C1C(=O)O[C@H]2[C@H]1CC/C(COC(=O)NCc1cc(OC)cc(OC)c1)=C\CC[C@@]1(C)O[C@@H]21`: the GI50 in the assay on 786-0 renal was 1.7 µM; with MOLT-4 leukemia it was 2 µM; with NCI-H226 lung, 2.02 µM; with OVCAR-4 ovarian it was 1.7 µM; in the assay with OVCAR-5 ovarian, 1.82 µM; in the assay with RPMI-8226 leukemia, 1.8 µM. For the same molecule, the GI50 was 2.46 µM with SF-268 CNS, 7.78 µM with SF-295 CNS, 3.48 µM in the assay with SK-MEL-5 melanoma and 1.85 µM in the assay with T-47D breast. In addition, the TGI in the assay on 786-0 renal was 3.45 µM; in the assay with MOLT-4 leukemia it was 5.55 µM; with NCI-H226 lung, 5.49 µM; in the assay with OVCAR-4 ovarian, 5.24 µM; in the assay with OVCAR-5 ovarian, 4.45 µM; in the assay with RPMI-8226 leukemia, 6.25 µM. Moreover, the TGI with SF-268 CNS is 9.9 µM; in the assay on SF-295 CNS, 22.3 µM; in the assay on SK-MEL-5 melanoma it was 12.2 µM; with T-47D breast, 4.83 µM.

In the case of `C=C(C)[C@@H]1CC[C@]2(C(N)=O)CC[C@]3(C)[C@H](CC[C@@H]4[C@@]5(C)C/C(=C/c6cccnc6)[C@H](O)C(C)(C)[C@@H]5CC[C@]43C)[C@@H]12`, the GI50 with 786-0 renal was 6.24 µM; in the assay on MOLT-4 leukemia it was 2.93 µM; in the assay with NCI-H226 lung it was 4.98 µM; in the assay with OVCAR-4 ovarian it was 3.31 µM; with OVCAR-5 ovarian it was 3.61 µM; in the assay with RPMI-8226 leukemia, 2.5 µM. Besides, the GI50 in the assay on SF-268 CNS was 6.8 µM; in the assay on SF-295 CNS, 3.75 µM; with SK-MEL-5 melanoma it was 3.23 µM; in the assay on T-47D breast it was 3.38 µM. For the same molecule, the TGI with 786-0 renal is more than 100 µM; with MOLT-4 leukemia it was more than 100 µM; with NCI-H226 lung it was more than 100 µM; with OVCAR-4 ovarian it was more than 100 µM; with OVCAR-5 ovarian it was more than 100 µM; with RPMI-8226 leukemia it was 48.3 µM. Further, the TGI with SF-268 CNS was more than 100 µM; in the assay with SF-295 CNS, more than 100 µM; in the assay with SK-MEL-5 melanoma, 12.4 µM; with T-47D breast, more than 100 µM.

In the case of `COc1ccc2nc(-c3cc4c([nH]c5ccccc54)c(-c4ccc(F)c(F)c4)n3)[nH]c2c1`, the GI50 is 10.2 µM with 786-0 renal; 2.03 µM with MOLT-4 leukemia; 8.91 µM with NCI-H226 lung; 6.3 µM in the assay on OVCAR-4 ovarian; 17.8 µM in the assay on OVCAR-5 ovarian; 1.55 µM in the assay on RPMI-8226 leukemia. Also, the GI50 with SF-268 CNS is 5.8 µM; in the assay with SK-MEL-5 melanoma, 4.91 µM; with T-47D breast, 3.76 µM. Moreover, the TGI in the assay with 786-0 renal came to 24.9 µM; with MOLT-4 leukemia, 7.39 µM; in the assay with NCI-H226 lung, 42.5 µM; in the assay with OVCAR-4 ovarian, 24 µM; with OVCAR-5 ovarian, 58.6 µM; with RPMI-8226 leukemia, 4.29 µM. The TGI with SF-268 CNS was determined as 69.6 µM; with SK-MEL-5 melanoma it was 21.9 µM; with T-47D breast, 20 µM.

The values are drawn from PubChem BioAssay (NCI).
